Reference: ChEMBL document CHEMBL1201862, “PubChem BioAssay data set” (2004)
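In this assay, cells in 96-well plates receive the compound at five concentrations for 48 hours. Endpoints are linearly interpolated between the surrounding concentrations. GI50 is the concentration that inhibits growth by half.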 The source made the active and inactive calls. Cut-off read from the data, not from the text of the source: active = GI50 up to about 1.1 µM and inactive = higher.

Key:
Test in all cases: growth of human tumour cells (NCI), 48 h
786-0 = system: 786-0
A498 = system: A498
A549 = system: A549
ACHN = system: ACHN
CAKI-1 = system: CAKI-1
CCRF-CEM = system: CCRF-CEM
COLO 205 = system: COLO 205
DLD-1 = system: DLD-1
DMS-114 = system: DMS-114
DMS-273 = system: DMS-273
EKVX = system: EKVX
HCC 2998 = system: HCC 2998
HCT-116 = system: HCT-116
HCT-15 = system: HCT-15
HL-60 = system: HL-60
HOP-18 = system: HOP-18
HOP-62 = system: HOP-62
HOP-92 = system: HOP-92
HT-29 = system: HT-29
IGROV-1 = system: IGROV-1
K562 = system: K562
KM-20L2 = system: KM-20L2
KM12 = system: KM12
LOX IMVI = system: LOX IMVI
LXFL 529 = system: LXFL 529
M14 = system: M14
M19-MEL = system: M19-MEL
MOLT-4 = system: MOLT-4
Malme-3M = system: Malme-3M
NCI-H226 = system: NCI-H226
NCI-H23 = system: NCI-H23
NCI-H460 = system: NCI-H460
NCI-H522 = system: NCI-H522
OVCAR-3 = system: OVCAR-3
OVCAR-4 = system: OVCAR-4
OVCAR-5 = system: OVCAR-5
OVCAR-8 = system: OVCAR-8
RPMI-8226 = system: RPMI-8226
RXF 631 = system: RXF 631
SF-268 = system: SF-268
SF-295 = system: SF-295
SF-539 = system: SF-539
SK-MEL-2 = system: SK-MEL-2
SK-MEL-5 = system: SK-MEL-5
SK-OV-3 = system: SK-OV-3
SN12C = system: SN12C
SNB-19 = system: SNB-19
SNB-78 = system: SNB-78
SW-620 = system: SW-620
TK-10 = system: TK-10
U-251 = system: U-251
UACC-257 = system: UACC-257
UACC-62 = system: UACC-62
UO-31 = system: UO-31
XF498 = system: XF498
RXF 393 = system: RXF 393
SNB-75 = system: SNB-75
SK-MEL-28 = system: SK-MEL-28

Question: What does the source list for `CC(=O)O/C=C(/C=C/OC(C)=O)C(C/C=C(\C)C#CC=C(C)C)OC(C)=O` (stereo not drawn)?
Answer: GI50 (786-0): 36.6 µM (inactive); GI50 (A498): > 100 µM (inactive); GI50 (A549): > 100 µM (inactive); GI50 (ACHN): 61.1 µM (inactive); GI50 (CAKI-1): > 100 µM (inactive); GI50 (CCRF-CEM): 26.1 µM (inactive); GI50 (COLO 205): 27.9 µM (inactive); GI50 (DLD-1): 45.8 µM (inactive); GI50 (DMS-114): 19 µM (inactive); GI50 (DMS-273): 50.8 µM (inactive); GI50 (EKVX): 93.5 µM (inactive); GI50 (HCC 2998): > 100 µM (inactive); GI50 (HCT-116): 18.3 µM (inactive); GI50 (HCT-15): 17.7 µM; GI50 (HL-60): 8.51 µM (inactive); GI50 (HOP-18): 33.3 µM (inactive); GI50 (HOP-62): > 100 µM (inactive); GI50 (HOP-92): 36.6 µM (inactive); GI50 (HT-29): 30.7 µM (inactive); GI50 (IGROV-1): 30.4 µM (inactive); GI50 (K562): 21 µM (inactive); GI50 (KM-20L2): 53.1 µM (inactive); GI50 (KM12): 23.1 µM (inactive); GI50 (LOX IMVI): 26.1 µM (inactive); GI50 (LXFL 529): 19.3 µM (inactive); GI50 (M14): 34.1 µM (inactive); GI50 (M19-MEL): 20.8 µM (inactive); GI50 (MOLT-4): 21.1 µM (inactive); GI50 (Malme-3M): 72.6 µM (inactive); GI50 (NCI-H226): > 100 µM (inactive); GI50 (NCI-H23): 38.6 µM (inactive); GI50 (NCI-H460): > 100 µM (inactive); GI50 (NCI-H522): 25.2 µM (inactive); GI50 (OVCAR-3): 24.2 µM (inactive); GI50 (OVCAR-4): 38.4 µM (inactive); GI50 (OVCAR-5): > 100 µM (inactive); GI50 (OVCAR-8): 37 µM (inactive); GI50 (RPMI-8226): 25.8 µM (inactive); GI50 (RXF 631): > 100 µM (inactive); GI50 (SF-268): > 100 µM (inactive); GI50 (SF-295): 61.5 µM (inactive); GI50 (SF-539): 22.8 µM (inactive); GI50 (SK-MEL-2): > 100 µM (inactive); GI50 (SK-MEL-5): 72.6 µM (inactive); GI50 (SK-OV-3): > 100 µM (inactive); GI50 (SN12C): 36.6 µM (inactive); GI50 (SNB-19): > 100 µM (inactive); GI50 (SNB-78): 29.9 µM (inactive); GI50 (SW-620): 42.3 µM (inactive); GI50 (TK-10): > 100 µM (inactive); GI50 (U-251): 38.5 µM (inactive); GI50 (UACC-257): 33.7 µM (inactive); GI50 (UACC-62): 27.4 µM (inactive); GI50 (UO-31): 58.2 µM (inactive); GI50 (XF498): 37.2 µM (inactive)

Question: Which results are given for `Cc1ccccc1-n1c2nc(=O)n(C)c(=O)c-2nc2ccccc21`?
Answer: GI50 (786-0): 15.8 µM (inactive); GI50 (A498): 31.8 µM (inactive); GI50 (A549): 13.2 µM (inactive); GI50 (ACHN): 8.39 µM (inactive); GI50 (CAKI-1): 24.4 µM (inactive); GI50 (CCRF-CEM): 13.3 µM (inactive); GI50 (COLO 205): 3.56 µM (inactive); GI50 (DLD-1): 16.7 µM (inactive); GI50 (DMS-114): 4.9 µM (inactive); GI50 (DMS-273): 10.9 µM (inactive); GI50 (EKVX): 11.8 µM (inactive); GI50 (HCC 2998): 10.8 µM (inactive); GI50 (HCT-116): 14.6 µM (inactive); GI50 (HCT-15): 11.1 µM; GI50 (HL-60): 11.1 µM (inactive); GI50 (HOP-18): 10.5 µM (inactive); GI50 (HOP-62): 38.5 µM (inactive); GI50 (HT-29): 4.24 µM (inactive); GI50 (IGROV-1): 19.2 µM (inactive); GI50 (K562): 18.2 µM (inactive); GI50 (KM-20L2): 7.35 µM (inactive); GI50 (KM12): 12.2 µM (inactive); GI50 (LOX IMVI): 15.7 µM (inactive); GI50 (LXFL 529): 12.5 µM (inactive); GI50 (M14): 11 µM (inactive); GI50 (M19-MEL): 1.85 µM (inactive); GI50 (MOLT-4): 17.8 µM (inactive); GI50 (Malme-3M): 5.58 µM (inactive); GI50 (NCI-H226): 21 µM (inactive); GI50 (NCI-H23): 10.1 µM (inactive); GI50 (NCI-H460): 9.55 µM (inactive); GI50 (NCI-H522): 14.9 µM (inactive); GI50 (OVCAR-3): 2.33 µM (inactive); GI50 (OVCAR-4): 13.6 µM (inactive); GI50 (OVCAR-5): 20.5 µM (inactive); GI50 (OVCAR-8): 12.2 µM (inactive); GI50 (RPMI-8226): 16.3 µM (inactive); GI50 (RXF 393): 17.2 µM (inactive); GI50 (RXF 631): 14.6 µM (inactive); GI50 (SF-268): 12.7 µM (inactive); GI50 (SF-295): 14.2 µM (inactive); GI50 (SF-539): 15.2 µM (inactive); GI50 (SK-MEL-2): 15.1 µM (inactive); GI50 (SK-MEL-5): 10.6 µM (inactive); GI50 (SK-OV-3): 36.9 µM (inactive); GI50 (SN12C): 13.3 µM (inactive); GI50 (SNB-19): 14.6 µM (inactive); GI50 (SNB-75): 20.1 µM (inactive); GI50 (SNB-78): 18.6 µM (inactive); GI50 (SW-620): 13.4 µM (inactive); GI50 (TK-10): 12.1 µM (inactive); GI50 (U-251): 17.3 µM (inactive); GI50 (UACC-257): 8.73 µM (inactive); GI50 (UACC-62): 3.48 µM (inactive); GI50 (UO-31): 29.1 µM (inactive); GI50 (XF498): 17.5 µM (inactive)

Question: Which GI50 (786-0) does the source give for `COc1cccc2cc(C)c(C(=O)c3ccccc3)nc12` here?
Answer: > 100 µM (inactive)

Question: What about the GI50 (A549) of the same compound?
Answer: > 100 µM (inactive)

Question: What about the GI50 (ACHN) of the same compound?
Answer: > 100 µM (inactive)

Question: What about the GI50 (CAKI-1) of the same compound?
Answer: > 100 µM (inactive)

Question: And the GI50 (CCRF-CEM)?
Answer: > 100 µM (inactive)

Question: What about the GI50 (COLO 205) of the same compound?
Answer: > 100 µM (inactive)

Question: What about the GI50 (DLD-1) of the same compound?
Answer: > 100 µM (inactive)

Question: What about the GI50 (DMS-114) of the same compound?
Answer: > 100 µM (inactive)

Question: And the GI50 (DMS-273)?
Answer: > 100 µM (inactive)

Question: What about the GI50 (EKVX) of the same compound?
Answer: > 100 µM (inactive)

Question: And the GI50 (HCC 2998)?
Answer: > 100 µM (inactive)

Question: And the GI50 (HCT-116)?
Answer: > 100 µM (inactive)

Question: And the GI50 (HCT-15)?
Answer: > 100 µM

Question: And the GI50 (HOP-18)?
Answer: > 100 µM (inactive)

Question: And the GI50 (HOP-62)?
Answer: > 100 µM (inactive)

Question: And the GI50 (IGROV-1)?
Answer: > 100 µM (inactive)

Question: What about the GI50 (K562) of the same compound?
Answer: > 100 µM (inactive)

Question: What about the GI50 (KM-20L2) of the same compound?
Answer: > 100 µM (inactive)

Question: What about the GI50 (KM12) of the same compound?
Answer: > 100 µM (inactive)

Question: And the GI50 (LOX IMVI)?
Answer: > 100 µM (inactive)

Question: What about the GI50 (LXFL 529) of the same compound?
Answer: > 100 µM (inactive)

Question: And the GI50 (M14)?
Answer: > 100 µM (inactive)

Question: And the GI50 (M19-MEL)?
Answer: > 100 µM (inactive)

Question: And the GI50 (MOLT-4)?
Answer: > 100 µM (inactive)

Question: And the GI50 (Malme-3M)?
Answer: > 100 µM (inactive)

Question: What about the GI50 (NCI-H226) of the same compound?
Answer: > 100 µM (inactive)

Question: And the GI50 (NCI-H23)?
Answer: > 100 µM (inactive)

Question: What about the GI50 (NCI-H522) of the same compound?
Answer: > 100 µM (inactive)

Question: What about the GI50 (OVCAR-3) of the same compound?
Answer: > 100 µM (inactive)

Question: And the GI50 (OVCAR-4)?
Answer: > 100 µM (inactive)

Question: And the GI50 (OVCAR-5)?
Answer: > 100 µM (inactive)

Question: And the GI50 (OVCAR-8)?
Answer: > 100 µM (inactive)

Question: What about the GI50 (RPMI-8226) of the same compound?
Answer: > 100 µM (inactive)

Question: And the GI50 (RXF 393)?
Answer: > 100 µM (inactive)

Question: What about the GI50 (RXF 631) of the same compound?
Answer: > 100 µM (inactive)

Question: What about the GI50 (SF-268) of the same compound?
Answer: > 100 µM (inactive)

Question: And the GI50 (SF-295)?
Answer: > 100 µM (inactive)

Question: And the GI50 (SF-539)?
Answer: > 100 µM (inactive)

Question: And the GI50 (SK-MEL-28)?
Answer: > 100 µM (inactive)

Question: And the GI50 (SK-MEL-2)?
Answer: > 100 µM (inactive)

Question: And the GI50 (SK-MEL-5)?
Answer: > 100 µM (inactive)

Question: What about the GI50 (SN12C) of the same compound?
Answer: > 100 µM (inactive)

Question: And the GI50 (SNB-19)?
Answer: > 100 µM (inactive)

Question: And the GI50 (SNB-75)?
Answer: 91.2 µM (inactive)

Question: What about the GI50 (SNB-78) of the same compound?
Answer: > 100 µM (inactive)

Question: And the GI50 (SW-620)?
Answer: > 100 µM (inactive)

Question: And the GI50 (TK-10)?
Answer: > 100 µM (inactive)

Question: And the GI50 (U-251)?
Answer: > 100 µM (inactive)

Question: What about the GI50 (UACC-257) of the same compound?
Answer: 82.2 µM (inactive)

Question: And the GI50 (UACC-62)?
Answer: > 100 µM (inactive)

Question: What about the GI50 (UO-31) of the same compound?
Answer: > 100 µM (inactive)

Question: What about the GI50 (XF498) of the same compound?
Answer: > 100 µM (inactive)
